What was measured:
Cynomolgus monkey [1] = conditions: in vivo, po, 1 mg/kg
[2] = Clearance in cynomolgus monkey at 1 mg/kg, iv; assay type: ADME, organism-based, Macaca fascicularis; set-up: dose 1 mg/kg, route intravenous; conditions: in vivo
Hepatitis C virus = experiment: microbe, parasite or virus in culture; conditions: genotype 1b, Huh-7, 72 h
[3] = Clearance in cynomolgus monkey at 1 […]; assay type: ADME, organism-based, Macaca fascicularis; set-up: dose 1 mg/kg; conditions: in vivo
in vitro [4] = conditions: human, liver microsomes
Cynomolgus monkey [5] = conditions: in vivo, iv, 1 mg/kg
[6] = Apparent permeability from apical to basolateral side in human Caco-2 cells at 10 uM after 3 hrs; assay type: ADME, cell-based
in vitro [7] = conditions: human, Huh7/C24 cells
Description: Cytotoxicity against human Huh7/C24 cells after 72 hrs by bDNA assay

in vitro [8] = conditions: cynomolgus monkey, liver microsomes
[9] = Oral bioavailability in cynomolgus monkey at 1 mg/kg, po; assay type: ADME, organism-based, Macaca fascicularis; conditions: in vivo
in vitro [10] = conditions: human, liver microsomes; remark: listed apart in the source
in vitro [11] = conditions: human, liver microsomes; remark: listed apart in the source

SMILES | EC50 (Hepatitis C virus) [nM] | half-life at 5 µM (in vitro [4]) [min] | CC50 at 72 h (in vitro [7]) [nM] | further results
CS(=O)(=O)Nc1ccc2c(c1)S(=O)(=O)N=C(C1=C(O)[C@@H]3CCC[C@@H]3N(Cc3ccc(F)cc3)C1=O)N2 | 16 | > 60 | > 100000 | AUC (Cynomolgus monkey [1]): 6040 ng·h/mL; clearance [2]: 0.63 mL/min/kg; CL/F [3]: 0.63 mL/min/kg; AUC (Cynomolgus monkey [5]): 29100 ng·h/mL; Papp A→B at 3 h, 10 µM [6]: 1.6 ×10⁻⁶ cm/s; half-life at 5 µM (in vitro [8]): > 60 min; bioavailability [9]: 21%
C[C@@]1(CCC2CC2)CN(C2CCC2)C(=O)C(C2=NS(=O)(=O)c3cc(NS(C)(=O)=O)ccc3N2)=C1O | 150 |  | > 1000 | half-life at 5 µM (in vitro [10]): 5.1 min; half-life at 5 µM (in vitro [11]): > 60 min
CC(C)C[C@@H]1CC(O)=C(C2=NS(=O)(=O)c3cc(NS(C)(=O)=O)ccc3N2)C(=O)N1Cc1ccc(F)cc1 | 2900 | > 60 |  | 
CC(C)CC[C@]1(C)CN(C2CC2)C(=O)C(C2=NS(=O)(=O)c3cc(NS(C)(=O)=O)ccc3N2)=C1O | 97 | 5.5 | > 33000 | 
CC[C@@H]1CC(O)=C(C2=NS(=O)(=O)c3cc(NS(C)(=O)=O)ccc3N2)C(=O)N1Cc1ccc(F)cc1 | 970 | > 60 |  | 
CC(C)CC[C@]1(C)CN(C2CCCC2)C(=O)C(C2=NS(=O)(=O)c3cc(NS(C)(=O)=O)ccc3N2)=C1O |  | > 2.6 | > 33000 | 
CC(C)CC[C@]1(C)CN(C2CCCCC2)C(=O)C(C2=NS(=O)(=O)c3cc(NS(C)(=O)=O)ccc3N2)=C1O | 25 | > 3.6 | > 33000 | 
CC(C)(C)CC[C@]1(C)CN(C2CCCCC2)C(=O)C(C2=NS(=O)(=O)c3cc(NS(C)(=O)=O)ccc3N2)=C1O | 1400 |  | > 10000 | half-life at 5 µM (in vitro [10]): 1.4 min; half-life at 5 µM (in vitro [11]): > 60 min
CC(C)=CC[C@H]1CN(Cc2ccc(F)cc2)C(=O)C(C2=NS(=O)(=O)c3cc(NS(C)(=O)=O)ccc3N2)=C1O | 670 | 6.9 | > 33000 | 
CC(C)CC[C@H]1CN(Cc2ccc(F)cc2)C(=O)C(C2=NS(=O)(=O)c3cc(NS(C)(=O)=O)ccc3N2)=C1O | 490 | 6.5 | > 33000 | 
CC(C)CC[C@@]1(C)CN(Cc2ccc(F)cc2)C(=O)C(C2=NS(=O)(=O)c3cc(NS(C)(=O)=O)ccc3N2)=C1O | 770 | 5.7 | > 33000 | 
CC(C)(C)CC[C@]1(C)CN(C2CCC2)C(=O)C(C2=NS(=O)(=O)c3cc(NS(C)(=O)=O)ccc3N2)=C1O | 460 |  | > 1000 | half-life at 5 µM (in vitro [10]): 3 min; half-life at 5 µM (in vitro [11]): > 60 min
CS(=O)(=O)Nc1ccc2c(c1)S(=O)(=O)N=C(C1=C(O)C3(CCCC3)CN(Cc3ccc(F)cc3)C1=O)N2 | 2100 | 28 | > 33000 | 
CS(=O)(=O)Nc1ccc2c(c1)S(=O)(=O)N=C(C1=C(O)C[C@@H](c3ccc(F)cc3)N(Cc3ccc(F)cc3)C1=O)N2 | 520 | > 60 | > 10000 | 
CC[C@H]1CC(O)=C(C2=Nc3ccc(NS(C)(=O)=O)cc3S(=O)(=O)N2)C(=O)N1Cc1ccc(F)cc1 | 83 | > 60 | > 1000 | 
CC(C)CC[C@]1(C)CN(C2CCC2)C(=O)C(C2=NS(=O)(=O)c3cc(NS(C)(=O)=O)ccc3N2)=C1O | 14 | 2.2 | > 10000 | AUC (Cynomolgus monkey [1]): 556 ng·h/mL; clearance [2]: 4.7 mL/min/kg; CL/F [3]: 4.7 mL/min/kg; AUC (Cynomolgus monkey [5]): 3560 ng·h/mL; Papp A→B at 3 h, 10 µM [6]: 2.9 ×10⁻⁶ cm/s; half-life at 5 µM (in vitro [8]): 55 min; bioavailability [9]: 16%
CC(C)/C=C/C[C@@H]1CN(C2CCCC2)C(O)C(C2=NS(=O)(=O)c3cc(NS(C)(=O)=O)ccc3N2)=C1O (stereo not given in full) | 240 | 35 | > 33000 | 
CS(=O)(=O)Nc1ccc2c(c1)S(=O)(=O)N=C(C1=C(O)CC3(CCCC3)N(Cc3ccc(F)cc3)C1=O)N2 | 840 | > 60 | > 33000 | 
CC(C)CC[C@@H]1CC(O)=C(C2=NS(=O)(=O)c3cc(NS(C)(=O)=O)ccc3N2)C(=O)N1Cc1ccc(F)cc1 | 5500 | 7.6 |  | 
CC(C)CC[C@@H]1CN(C2CCCC2)C(=O)C(C2=NS(=O)(=O)c3cc(NS(C)(=O)=O)ccc3N2)=C1O | 43 | 32 | > 33000 | 
C[C@@]1(Cc2ccc(F)cc2)CN(C2CC2)C(=O)C(C2=NS(=O)(=O)c3cc(NS(C)(=O)=O)ccc3N2)=C1O | 2100 |  | > 33000 | 

SMILES | EC50 (Hepatitis C virus) [nM] | half-life at 5 µM (in vitro [4]) [min] | CC50 at 72 h (in vitro [7]) [nM] | further results
CC1(C)CN(Cc2ccc(F)cc2)C(=O)C(C2=NS(=O)(=O)c3cc(NS(C)(=O)=O)ccc3N2)=C1O | 1300 | > 60 | > 33000 | 
C[C@@]1(CCC2CC2)CN(C2CCCC2)C(=O)C(C2=NS(=O)(=O)c3cc(NS(C)(=O)=O)ccc3N2)=C1O | 170 |  | > 10000 | half-life at 5 µM (in vitro [10]): 3.7 min; half-life at 5 µM (in vitro [11]): > 60 min
CCC[C@]1(C)CN(C2CCC2)C(=O)C(C2=NS(=O)(=O)c3cc(NS(C)(=O)=O)ccc3N2)=C1O | 8500 |  |  | half-life at 5 µM (in vitro [10]): 2.8 min; half-life at 5 µM (in vitro [11]): > 60 min
CC[C@@]1(C)CN(Cc2ccc(F)cc2)C(=O)C(C2=NS(=O)(=O)c3cc(NS(C)(=O)=O)ccc3N2)=C1O | 160 | > 60 | > 1000 | 
CC[C@@]1(CCC(C)C)CN(C2CCCC2)C(=O)C(C2=NS(=O)(=O)c3cc(NS(C)(=O)=O)ccc3N2)=C1O | 300 |  | > 1000 | half-life at 5 µM (in vitro [10]): 3 min; half-life at 5 µM (in vitro [11]): > 60 min
CC(C)CC[C@]1(C)CN(c2ccccc2)C(=O)C(C2=NS(=O)(=O)c3cc(NS(C)(=O)=O)ccc3N2)=C1O |  | > 2.3 |  | 
CS(=O)(=O)Nc1ccc2c(c1)S(=O)(=O)N=C(C1=C(O)C3(CC3)CN(Cc3ccc(F)cc3)C1=O)N2 | 550 | > 60 | > 1000 | 
CS(=O)(=O)Nc1ccc2c(c1)S(=O)(=O)N=C(C1=C(O)C3(CCC3)CN(Cc3ccc(F)cc3)C1=O)N2 | 770 | > 60 | > 33000 | 
CC(C)(C)[C@H]1CC(O)=C(C2=NS(=O)(=O)c3cc(NS(C)(=O)=O)ccc3N2)C(=O)N1Cc1ccc(F)cc1 | 810 | > 60 | > 10000 | 
CCCC[C@]1(C)CN(C2CCC2)C(=O)C(C2=NS(=O)(=O)c3cc(NS(C)(=O)=O)ccc3N2)=C1O | > 10000 |  |  | half-life at 5 µM (in vitro [10]): 3 min; half-life at 5 µM (in vitro [11]): > 60 min
CS(=O)(=O)Nc1ccc2c(c1)S(=O)(=O)N=C(C1=C(O)[C@@H](Cc3ccc(F)cc3)CN(Cc3ccc(F)cc3)C1=O)N2 | 3600 | > 60 | > 33000 | 
CC(C)[C@H]1CC(O)=C(C2=NS(=O)(=O)c3cc(NS(C)(=O)=O)ccc3N2)C(=O)N1Cc1ccc(F)cc1 | 45 | > 60 | > 1000 | 
C[C@@]1(Cc2ccc(F)cc2)CN(C2CCCC2)C(=O)C(C2=NS(=O)(=O)c3cc(NS(C)(=O)=O)ccc3N2)=C1O | 14000 |  | > 33000 | 
C#CC[C@]1(C)CN(C2CCCC2)C(=O)C(C2=NS(=O)(=O)c3cc(NS(C)(=O)=O)ccc3N2)=C1O | 2900 | 43 | > 33000 | 
CC(C)(C)CC[C@]1(C)CN(C2CCCC2)C(=O)C(C2=NS(=O)(=O)c3cc(NS(C)(=O)=O)ccc3N2)=C1O | 310 |  | > 10000 | half-life at 5 µM (in vitro [10]): 1.6 min; half-life at 5 µM (in vitro [11]): > 60 min
C[C@]1(CC2CC2)CN(Cc2ccc(F)cc2)C(=O)C(C2=NS(=O)(=O)c3cc(NS(C)(=O)=O)ccc3N2)=C1O | 200 | > 60 | > 33000 | 
CCC(CC)[C@@H]1CC(O)=C(C2=NS(=O)(=O)c3cc(NS(C)(=O)=O)ccc3N2)C(=O)N1Cc1ccc(F)cc1 | 310 | 59 | > 1000 | 
CC(C)(C)CC[C@]1(C)CN(C2CC2)C(=O)C(C2=NS(=O)(=O)c3cc(NS(C)(=O)=O)ccc3N2)=C1O | 330 | 10 | > 10000 | 
CS(=O)(=O)Nc1ccc2c(c1)S(=O)(=O)N=C(C1=C(O)C[C@H](c3ccccc3)N(Cc3ccc(F)cc3)C1=O)N2 | 660 | > 60 | > 10000 | 
CS(=O)(=O)Nc1ccc2c(c1)S(=O)(=O)N=C(C1=C(O)CCN(Cc3ccc(F)cc3)C1=O)N2 | 3900 | > 60 | > 33000 | 

Source: ChEMBL document CHEMBL1156075, “5,5'- and 6,6'-dialkyl-5,6-dihydro-1H-pyridin-2-ones as potent inhibitors of HCV NS5B polymerase” (Bioorg Med Chem Lett, 2009)
